# Results from patent US20160375006A1, “USES OF PARALOG-SELECTIVE INHIBITORS OF GSK3 KINASES” (priority 2012, published 2016).
# Columns and labels:
# [1] = target: KIT(T670I) (Homo sapiens, UniProt P10721, T670I)
# Procedure: (§1) This was completed utilizing one of two assays depending on the kinase being examined.
# (§2) A solution of IMAP binding reagent (IMAP Screening Express kit; Molecular Devices) (60 μL) was added to each well and incubated for 30 minutes.
# (§3) A solution of termination buffer (QuickScout Screening assist MSA; Carna Biosciences) (60 μL) was added to each well. The entire reaction mixture was then applied to a LabChip3000 system (Caliper Life Science) and the product and substrate peptide peaks were separated and quantified.
# (§4) The assay utilized was identical to that of the single point inhibitory activity determination (MSA) but run in dose response. […] A solution of termination buffer (QuickScout Screening assist MSA; Carna Biosciences) (60 μL) was added to each well. The entire reaction mixture was then applied to a LabChip3000 system (Caliper Life Science) and the product and substrate peptide peaks were separated and quantified.
# [2] = target: MRCKβ (Homo sapiens, UniProt Q9Y5S2)
# Procedure: as §1, §2, §3, §4
# [3] = target: NEK6 (Homo sapiens, UniProt Q9HC98)
# Procedure: as §1, §2, §3
# [4] = target: CaMK1α (Homo sapiens, UniProt Q14012)
# Procedure: as §1, §2, §3, §4
# [5] = target: AurA (Homo sapiens, UniProt O14965)
# Procedure: as §1, §3
# (§5) The assay utilized was identical to that of the single point inhibitory activity determination (MSA) but run in dose response.
# [6] = target: JNK3 (Homo sapiens, UniProt P53779)
# Procedure: as §1, §2, §3
# [7] = target: SRPK2 (Homo sapiens, UniProt P78362)
# Procedure: as §2, §3, §4
# [8] = target: CSK (Homo sapiens, UniProt P41240)
# Procedure: as §1, §2, §3, §4
# [9] = target: CDK6/CycD3 (Homo sapiens, UniProt Q00534)
# Procedure: as §1, §2, §3, §4
# [10] = target: PLK3 (Homo sapiens, UniProt Q9H4B4)
# Procedure: as §1, §2, §3
# [11] = target: MAP3K3_Cascade (Homo sapiens, UniProt Q99759)
# Procedure: as §1, §3, §5
# [12] = target: PKD1 (Homo sapiens, UniProt Q15139)
# Procedure: as §1, §2, §3, §4
# [13] = target: TNK1 (Homo sapiens, UniProt Q13470)
# Source text: as §1, §5
# [14] = target: ARG (Homo sapiens, UniProt P42684)
# Procedure: as §1, §2, §3
# [15] = target: IGF1R (Homo sapiens, UniProt P08069)
# Procedure: as §1, §2, §3, §4
# [16] = target: FGFR4(V550L) (Homo sapiens, UniProt P22455, V550L)
# Procedure: as §1, §2, §3, §4
# [17] = target: PKCα (Homo sapiens, UniProt P17252)
# Procedure: as §1, §2, §3, §4
# [18] = target: DYRK2 (Homo sapiens, UniProt Q92630)
# Procedure: as §1, §2, §3, §4
# [19] = target: Erk2 (Homo sapiens, UniProt P28482)
# Procedure: as §1, §2, §3
# [20] = target: DDR2 (Homo sapiens, UniProt Q16832)
# [21] = target: CK1α (Homo sapiens, UniProt P48729)
# Procedure: as §1, §3, §5
# [22] = target: AurB (Homo sapiens, UniProt Q96GD4)
# Procedure: as §2, §3, §4
# [23] = target: PKN1 (Homo sapiens, UniProt Q16512)
# Procedure: as §1, §2, §3, §4
# [24] = target: PKCγ (Homo sapiens, UniProt P05129)
# Procedure: as §1, §2, §3, §4
# [25] = target: RSK4 (Homo sapiens, UniProt Q9UK32)
# Procedure: as §1, §2, §3
# [26] = target: EPHA8 (Homo sapiens, UniProt P29322)
# Procedure: as §1, §2, §3, §4
# [27] = target: DDR1 (Homo sapiens, UniProt Q08345)
# Procedure: as §1, §2, §3, §4
# [28] = test system: MAP3K4_Cascade
# Source text: as §1, §5
# [29] = target: p70S6Kβ (Homo sapiens, UniProt Q9UBS0)
# Procedure: as §1, §2, §3, §4
# [30] = target: EPHA5 (Homo sapiens, UniProt P54756)
# Procedure: as §1, §2, §3, §4
# [31] = target: CaMK2δ (Homo sapiens, UniProt Q13557)
# Procedure: as §1, §2, §3, §4
# [32] = target: BRK (Homo sapiens, UniProt Q13882)
# [33] = target: FLT4 (Homo sapiens, UniProt P35916)
# Procedure: as §1, §2, §3, §4
# [34] = target: BRSK1 (Homo sapiens, UniProt Q8TDC3)
# Procedure: as §1, §2, §3, §4
# [35] = target: CHK1 (Homo sapiens, UniProt O14757)
# Procedure: as §1, §2, §3, §4
# [36] = target: T1, PKR (Homo sapiens, UniProt P19525); assay: Carna kinase panel; format: biochemical
# T1 construct: purchased Carna Biosciences
# Procedure: as §1, §2, §3
# [37] = target: PKCβ1 (Homo sapiens, UniProt P05771)
# Procedure: as §1, §2, §3
# [38] = target: FMS (Homo sapiens, UniProt P07333)
# Procedure: as §1, §2, §3, §4
# [39] = target: FRK (Homo sapiens, UniProt P42685)
# Procedure: as §1, §2, §3, §4
# [40] = target: AXL (Homo sapiens, UniProt P30530)
# Procedure: as §1, §2, §3
# Sequence of CDK6/CycD3 (Q00534 whole entry): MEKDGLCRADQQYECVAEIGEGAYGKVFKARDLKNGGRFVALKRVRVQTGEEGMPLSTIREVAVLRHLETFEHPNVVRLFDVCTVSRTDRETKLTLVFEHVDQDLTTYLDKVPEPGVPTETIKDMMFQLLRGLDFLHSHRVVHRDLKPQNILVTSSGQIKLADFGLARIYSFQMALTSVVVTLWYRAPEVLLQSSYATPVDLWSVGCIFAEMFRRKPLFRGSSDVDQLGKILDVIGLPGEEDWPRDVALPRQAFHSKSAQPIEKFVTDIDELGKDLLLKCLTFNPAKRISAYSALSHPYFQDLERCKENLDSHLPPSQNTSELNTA
# Sequence of CDK6/CycD3 (P30281 whole entry partner): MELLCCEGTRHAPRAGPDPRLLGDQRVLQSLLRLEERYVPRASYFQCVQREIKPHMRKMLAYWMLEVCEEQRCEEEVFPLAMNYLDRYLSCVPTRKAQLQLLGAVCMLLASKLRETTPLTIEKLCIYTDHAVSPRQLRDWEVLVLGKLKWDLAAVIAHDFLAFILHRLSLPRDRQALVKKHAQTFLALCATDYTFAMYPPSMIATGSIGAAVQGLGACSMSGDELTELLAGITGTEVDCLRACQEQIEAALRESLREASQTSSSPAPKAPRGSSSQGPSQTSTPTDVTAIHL
# Sequence of IGF1R (P08069 31-1367): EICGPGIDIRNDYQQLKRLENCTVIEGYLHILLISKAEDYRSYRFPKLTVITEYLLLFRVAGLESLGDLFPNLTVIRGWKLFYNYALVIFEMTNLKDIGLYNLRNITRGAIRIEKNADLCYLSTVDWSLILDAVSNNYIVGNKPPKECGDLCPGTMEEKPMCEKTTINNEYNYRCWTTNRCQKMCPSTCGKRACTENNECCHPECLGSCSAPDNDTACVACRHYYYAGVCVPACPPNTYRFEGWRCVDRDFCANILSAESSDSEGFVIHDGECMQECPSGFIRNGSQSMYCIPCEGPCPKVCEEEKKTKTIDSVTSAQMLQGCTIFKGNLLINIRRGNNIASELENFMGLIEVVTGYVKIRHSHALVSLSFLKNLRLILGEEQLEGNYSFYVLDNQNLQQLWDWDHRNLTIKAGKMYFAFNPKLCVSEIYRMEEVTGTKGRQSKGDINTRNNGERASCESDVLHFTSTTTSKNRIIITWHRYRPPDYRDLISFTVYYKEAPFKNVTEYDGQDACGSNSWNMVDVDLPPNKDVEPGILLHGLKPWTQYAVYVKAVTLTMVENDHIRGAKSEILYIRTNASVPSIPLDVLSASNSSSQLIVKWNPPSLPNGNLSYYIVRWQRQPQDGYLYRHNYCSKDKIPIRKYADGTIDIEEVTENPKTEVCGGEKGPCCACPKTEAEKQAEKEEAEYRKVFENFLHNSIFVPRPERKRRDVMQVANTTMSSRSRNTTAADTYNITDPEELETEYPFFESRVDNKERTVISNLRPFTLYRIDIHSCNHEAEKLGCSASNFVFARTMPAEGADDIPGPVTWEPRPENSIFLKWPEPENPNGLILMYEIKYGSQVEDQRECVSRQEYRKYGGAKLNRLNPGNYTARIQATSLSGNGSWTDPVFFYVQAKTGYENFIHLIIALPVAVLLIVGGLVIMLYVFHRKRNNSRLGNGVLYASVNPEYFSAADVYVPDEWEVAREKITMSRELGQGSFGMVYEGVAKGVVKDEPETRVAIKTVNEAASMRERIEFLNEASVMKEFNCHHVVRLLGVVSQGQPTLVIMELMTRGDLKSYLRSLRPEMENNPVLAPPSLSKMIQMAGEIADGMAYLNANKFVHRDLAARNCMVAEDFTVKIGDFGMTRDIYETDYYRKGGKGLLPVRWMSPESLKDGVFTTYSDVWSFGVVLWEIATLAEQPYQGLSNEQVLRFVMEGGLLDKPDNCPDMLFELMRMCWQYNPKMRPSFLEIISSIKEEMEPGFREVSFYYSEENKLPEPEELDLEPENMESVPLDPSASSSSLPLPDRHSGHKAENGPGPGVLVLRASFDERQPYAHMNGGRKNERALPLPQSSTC
# Sequence of PLK3 (Q9H4B4 whole entry): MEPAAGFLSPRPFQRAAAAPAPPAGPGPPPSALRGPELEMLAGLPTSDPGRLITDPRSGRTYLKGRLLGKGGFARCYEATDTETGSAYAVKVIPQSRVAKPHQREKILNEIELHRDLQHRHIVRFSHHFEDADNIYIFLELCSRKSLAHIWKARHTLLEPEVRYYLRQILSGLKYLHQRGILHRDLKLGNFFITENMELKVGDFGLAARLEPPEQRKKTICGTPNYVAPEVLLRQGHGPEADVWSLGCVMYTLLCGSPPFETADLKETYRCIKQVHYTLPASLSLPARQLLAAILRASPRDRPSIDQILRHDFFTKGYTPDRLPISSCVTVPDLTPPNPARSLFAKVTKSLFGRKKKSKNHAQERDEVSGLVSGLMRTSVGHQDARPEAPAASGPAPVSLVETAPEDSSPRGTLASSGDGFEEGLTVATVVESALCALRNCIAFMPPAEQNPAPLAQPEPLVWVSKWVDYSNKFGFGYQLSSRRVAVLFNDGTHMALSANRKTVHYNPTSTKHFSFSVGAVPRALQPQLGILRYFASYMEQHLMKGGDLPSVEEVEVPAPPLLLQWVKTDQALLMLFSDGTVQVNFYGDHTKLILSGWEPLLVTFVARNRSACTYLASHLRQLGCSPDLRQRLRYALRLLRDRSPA
# Sequence of ARG (P42684 whole entry): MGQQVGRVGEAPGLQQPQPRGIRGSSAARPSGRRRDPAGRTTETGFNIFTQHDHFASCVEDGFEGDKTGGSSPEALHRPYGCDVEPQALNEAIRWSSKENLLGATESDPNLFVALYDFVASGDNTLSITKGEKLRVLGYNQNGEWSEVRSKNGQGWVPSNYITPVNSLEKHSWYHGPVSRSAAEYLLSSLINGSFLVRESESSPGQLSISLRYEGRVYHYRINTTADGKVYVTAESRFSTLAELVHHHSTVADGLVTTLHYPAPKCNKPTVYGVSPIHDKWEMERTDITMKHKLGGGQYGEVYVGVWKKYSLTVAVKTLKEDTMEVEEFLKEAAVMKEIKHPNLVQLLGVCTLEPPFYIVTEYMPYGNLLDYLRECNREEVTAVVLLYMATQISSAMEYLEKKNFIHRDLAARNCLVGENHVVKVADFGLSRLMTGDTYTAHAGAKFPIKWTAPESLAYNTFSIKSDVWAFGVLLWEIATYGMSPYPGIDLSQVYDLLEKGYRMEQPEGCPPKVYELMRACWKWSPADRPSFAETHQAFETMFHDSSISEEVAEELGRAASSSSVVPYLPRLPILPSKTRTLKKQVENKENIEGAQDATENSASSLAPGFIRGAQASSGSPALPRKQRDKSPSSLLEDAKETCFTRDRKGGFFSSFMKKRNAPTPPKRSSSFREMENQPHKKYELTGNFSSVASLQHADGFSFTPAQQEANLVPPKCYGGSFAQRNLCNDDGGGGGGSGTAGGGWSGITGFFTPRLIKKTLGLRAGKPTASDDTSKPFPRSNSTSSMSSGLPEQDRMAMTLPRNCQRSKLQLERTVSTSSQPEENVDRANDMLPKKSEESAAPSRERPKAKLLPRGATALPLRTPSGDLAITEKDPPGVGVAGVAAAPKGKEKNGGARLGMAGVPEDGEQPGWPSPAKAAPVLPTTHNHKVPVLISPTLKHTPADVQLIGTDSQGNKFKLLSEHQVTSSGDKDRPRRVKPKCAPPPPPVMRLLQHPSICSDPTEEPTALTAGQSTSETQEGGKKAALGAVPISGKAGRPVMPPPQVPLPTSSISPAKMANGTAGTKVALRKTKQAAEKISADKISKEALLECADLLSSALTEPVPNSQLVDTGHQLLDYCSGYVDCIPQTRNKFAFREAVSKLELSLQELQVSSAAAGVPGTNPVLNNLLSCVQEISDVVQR
# Sequence of CSK (P41240 whole entry): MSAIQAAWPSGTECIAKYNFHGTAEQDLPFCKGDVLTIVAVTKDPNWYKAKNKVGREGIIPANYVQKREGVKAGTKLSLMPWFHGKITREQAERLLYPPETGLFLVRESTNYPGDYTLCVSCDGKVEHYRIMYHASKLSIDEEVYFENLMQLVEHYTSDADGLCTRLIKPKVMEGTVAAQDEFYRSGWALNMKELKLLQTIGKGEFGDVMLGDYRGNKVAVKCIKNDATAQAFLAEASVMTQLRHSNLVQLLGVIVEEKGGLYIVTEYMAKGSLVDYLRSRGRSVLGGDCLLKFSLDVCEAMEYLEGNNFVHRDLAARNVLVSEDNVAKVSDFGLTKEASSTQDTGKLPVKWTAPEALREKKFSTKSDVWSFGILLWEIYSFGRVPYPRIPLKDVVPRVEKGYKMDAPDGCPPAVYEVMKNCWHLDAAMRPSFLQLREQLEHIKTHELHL
# Sequence of DYRK2 (Q92630 whole entry): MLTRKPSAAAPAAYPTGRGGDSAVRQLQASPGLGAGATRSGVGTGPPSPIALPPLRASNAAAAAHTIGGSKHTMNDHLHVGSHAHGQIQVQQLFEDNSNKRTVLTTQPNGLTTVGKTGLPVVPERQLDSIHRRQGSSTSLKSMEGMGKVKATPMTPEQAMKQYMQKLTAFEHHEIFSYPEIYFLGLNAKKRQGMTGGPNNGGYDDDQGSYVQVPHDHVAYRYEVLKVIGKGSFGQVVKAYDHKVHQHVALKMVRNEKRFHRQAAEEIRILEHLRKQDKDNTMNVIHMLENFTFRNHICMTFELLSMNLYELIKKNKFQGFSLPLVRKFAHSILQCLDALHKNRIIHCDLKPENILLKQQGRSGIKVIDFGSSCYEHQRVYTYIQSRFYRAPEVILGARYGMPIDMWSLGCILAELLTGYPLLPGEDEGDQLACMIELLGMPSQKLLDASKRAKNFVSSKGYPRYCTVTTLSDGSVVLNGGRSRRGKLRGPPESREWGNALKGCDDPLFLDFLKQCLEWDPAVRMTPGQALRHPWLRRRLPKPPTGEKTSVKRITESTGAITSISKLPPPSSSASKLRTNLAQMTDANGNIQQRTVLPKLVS
smiles,measurement,setting,value
CC[C@@]1(c2ccccc2)C2=C(CC(C)(C)CC2=O)Nc2n[nH]cc21 [BRD0705],% Inhibition at 10 μM,[1],−0.8%
same,% Inhibition at 10 μM,[2],−9.1%
same,% Inhibition at 10 μM,[3],−5.7%
same,% Inhibition at 10 μM,[4],−4.7%
same,% Inhibition at 10 μM,[5],6.1%
same,% Inhibition at 10 μM,[6],−3.4%
same,% Inhibition at 10 μM,[7],−2.5%
same,% Inhibition at 10 μM,[8],0.9%
same,% Inhibition at 10 μM,[9]; CDK6/CycD3,−0.5%
same,% Inhibition at 10 μM,[10],−12.5%
same,% Inhibition at 10 μM,[11],5.6%
same,% Inhibition at 10 μM,[12],−6.8%
same,% Inhibition at 10 μM,[13],−4.0%
same,% Inhibition at 10 μM,[14],1.1%
same,% Inhibition at 10 μM,[15],−2.5%
same,% Inhibition at 10 μM,[16],−0.4%
same,% Inhibition at 10 μM,[17],−0.5%
same,% Inhibition at 10 μM,[18],−3.0%
same,% Inhibition at 10 μM,[19],1.6%
same,% Inhibition at 10 μM,[20],−1.4%
same,% Inhibition at 10 μM,[21],6.0%
same,% Inhibition at 10 μM,[22],−2.8%
same,% Inhibition at 10 μM,[23],1.8%
same,% Inhibition at 10 μM,[24],−8.0%
same,% Inhibition at 10 μM,[25],1.1%
same,% Inhibition at 10 μM,[26],2.9%
same,% Inhibition at 10 μM,[27],−2.0%
same,% Inhibition at 10 μM,[28],11.6%
same,% Inhibition at 10 μM,[29],−2.1%
same,% Inhibition at 10 μM,[30],12.7%
same,% Inhibition at 10 μM,[31],−4.4%
same,% Inhibition at 10 μM,[32],−1.4%
same,% Inhibition at 10 μM,[33],−7.9%
same,% Inhibition at 10 μM,[34],−1.6%
same,% Inhibition at 10 μM,[35],2.9%
same,% Inhibition at 10 μM,[36],2.0%
same,% Inhibition at 10 μM,[37],−6.5%
same,% Inhibition at 10 μM,[38],−8.2%
same,% Inhibition at 10 μM,[39],0.9%
same,% Inhibition at 10 μM,[40],3.7%
CC(C)(C)Cc1[nH]nc2c1[C@](C)(c1ccccc1)C1=C(CC(C)(C)CC1=O)N2 [BRD3731],% Inhibition 10 μM,[1]; 10 μM,−0.3%
same,% Inhibition 10 μM,[2]; 10 μM,−0.7%
same,% Inhibition 10 μM,[3]; 10 μM,0.0%
same,% Inhibition 10 μM,[4]; 10 μM,4.7%
same,% Inhibition 10 μM,[5]; 10 μM,15.4%
same,% Inhibition 10 μM,[6]; 10 μM,−2.6%
same,% Inhibition 10 μM,[7]; 10 μM,6.4%
same,% Inhibition 10 μM,[8]; 10 μM,1.9%
same,IC50,[9]; CDK6/CycD3,> 10 µM
same,% Inhibition 10 μM,"[9]; CDK6/CycD3, 10 μM",28.3%
same,Fold Selectivity,[9]; IC50 CDK6/CycD3 / IC50 GSK3β,>370 fold
same,% Inhibition 10 μM,[10]; 10 μM,4.0%
same,% Inhibition 10 μM,[11]; 10 μM,1.8%
same,% Inhibition 10 μM,[12]; 10 μM,8.9%
same,% Inhibition 10 μM,[13]; 10 μM,−6.7%
same,% Inhibition 10 μM,[14]; 10 μM,6.4%
same,% Inhibition 10 μM,[15]; 10 μM,−1.5%
same,% Inhibition 10 μM,[16]; 10 μM,2.9%
same,% Inhibition 10 μM,[17]; 10 μM,8.1%
same,% Inhibition 10 μM,[18]; 10 μM,4.1%
same,% Inhibition 10 μM,[19]; 10 μM,0.9%
same,% Inhibition 10 μM,[20]; 10 μM,7.9%
same,% Inhibition 10 μM,[21]; 10 μM,−5.6%
same,% Inhibition 10 μM,[22]; 10 μM,−2.3%
same,% Inhibition 10 μM,[23]; 10 μM,16.2%
same,% Inhibition 10 μM,[24]; 10 μM,5.0%
same,% Inhibition 10 μM,[25]; 10 μM,33.9%
same,% Inhibition 10 μM,[26]; 10 μM,−1.9%
same,% Inhibition 10 μM,[27]; 10 μM,7.6%
same,% Inhibition 10 μM,[28]; 10 μM,12.4%
same,% Inhibition 10 μM,[29]; 10 μM,12.6%
same,% Inhibition 10 μM,[30]; 10 μM,−5.5%
same,% Inhibition 10 μM,[31]; 10 μM,−0.3%
same,% Inhibition 10 μM,[32]; 10 μM,−5.6%
same,% Inhibition 10 μM,[33]; 10 μM,16.8%
same,% Inhibition 10 μM,[34]; 10 μM,7.9%
same,% Inhibition 10 μM,[35]; 10 μM,−16.4%
same,% Inhibition 10 μM,[36]; 10 μM,3.1%
same,% Inhibition 10 μM,[37]; 10 μM,4.1%
same,% Inhibition 10 μM,[38]; 10 μM,5.2%
same,% Inhibition 10 μM,[39]; 10 μM,3.2%
same,% Inhibition 10 μM,[40]; 10 μM,3.8%
